These results are taken from ChEMBL document CHEMBL5729261, “AMPK activators” (2022).

Each structure is given as a SMILES string.

Sequence of AMP-activated protein kinase (AMPK) alpha-1/beta-1/gamma-1 (P54619 whole entry): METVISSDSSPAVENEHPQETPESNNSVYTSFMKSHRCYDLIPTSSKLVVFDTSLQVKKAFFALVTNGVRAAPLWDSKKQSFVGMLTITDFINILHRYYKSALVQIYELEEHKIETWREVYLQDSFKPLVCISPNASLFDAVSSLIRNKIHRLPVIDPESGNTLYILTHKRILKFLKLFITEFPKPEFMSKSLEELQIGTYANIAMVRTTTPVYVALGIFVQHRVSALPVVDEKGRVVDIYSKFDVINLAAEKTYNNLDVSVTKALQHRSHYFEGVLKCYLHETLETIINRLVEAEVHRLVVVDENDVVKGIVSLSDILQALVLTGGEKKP
Sequence of AMP-activated protein kinase (AMPK) alpha-1/beta-1/gamma-1 (Q9Y478 whole entry): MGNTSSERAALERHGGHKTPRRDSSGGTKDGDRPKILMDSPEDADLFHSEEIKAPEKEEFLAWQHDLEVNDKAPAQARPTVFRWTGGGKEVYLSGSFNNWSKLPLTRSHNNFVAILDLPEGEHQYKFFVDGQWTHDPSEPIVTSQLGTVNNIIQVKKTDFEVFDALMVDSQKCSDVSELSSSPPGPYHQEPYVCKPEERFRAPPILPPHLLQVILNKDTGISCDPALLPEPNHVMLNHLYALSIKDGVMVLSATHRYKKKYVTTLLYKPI
Sequence of AMP-activated protein kinase (AMPK) alpha-1/beta-1/gamma-1 (Q13131 whole entry): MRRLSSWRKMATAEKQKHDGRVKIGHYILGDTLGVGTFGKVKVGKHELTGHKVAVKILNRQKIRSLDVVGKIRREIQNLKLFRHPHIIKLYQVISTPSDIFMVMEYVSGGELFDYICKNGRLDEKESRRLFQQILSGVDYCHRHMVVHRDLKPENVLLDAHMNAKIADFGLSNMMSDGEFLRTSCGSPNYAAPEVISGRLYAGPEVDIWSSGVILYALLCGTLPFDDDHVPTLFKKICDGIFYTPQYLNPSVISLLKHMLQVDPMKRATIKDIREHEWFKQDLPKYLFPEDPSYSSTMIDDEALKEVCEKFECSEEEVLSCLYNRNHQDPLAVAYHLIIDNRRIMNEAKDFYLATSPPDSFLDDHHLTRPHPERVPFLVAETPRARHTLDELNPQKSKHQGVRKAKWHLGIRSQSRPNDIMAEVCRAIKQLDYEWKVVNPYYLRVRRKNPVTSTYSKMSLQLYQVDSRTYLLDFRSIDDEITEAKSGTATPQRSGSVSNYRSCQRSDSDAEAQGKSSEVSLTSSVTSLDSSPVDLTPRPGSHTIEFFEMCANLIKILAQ

The experiment concerns the target AMP-activated protein kinase (AMPK) alpha-1/beta-1/gamma-1 (Homo sapiens, UniProt P54619+Q13131+Q9Y478). The experiment can be described thus: In Vitro pAMPK1 Kinase Activation Assay: Compound effect on AMPK enzyme activation was determined in a cell-free format with a 12-point concentration curve. The ADP-Glo detection system was used to determine phosphorylation of a SAMS peptide substrate. Recombinant AMPK α1/β1/γ1 complex was pre-activated by phosphorylation with CAMKK2 followed by incubated with compound for 15 minutes prior to the SAMS phosphorylation reaction. Activity curves and EC50 values were fitted by interpolation to an ATP:ADP standard curve as indicated by the ADP-Glo manufacturer using Prism software. It is filed as protein-complex assay. (In general: In ADP-Glo the light output rises with the ADP produced.)
By EC50 is commonly meant the concentration that produces a half-maximal response. `O=S(=O)(NCCOCCO)c1ccc(-c2ccc(-c3cc4nc(O[C@@H]5CO[C@H]6[C@@H]5OC[C@H]6O)[nH]c4cc3Cl)cc2)cc1`: the EC50 is 1.51 nM.

Take `O=C(NCCC[N+]12CCN(CC1)CC2)c1ccc(-c2ccc(-c3cc4nc(O[C@@H]5CO[C@H]6[C@@H]5OC[C@H]6O)[nH]c4cc3Cl)cc2)cc1`: the EC50 was 0.96 nM.

`O=C(NCC[N+]12CCN(CC1)CC2)c1ccc(-c2ccc(-c3cc4nc(O[C@@H]5CO[C@H]6[C@@H]5OC[C@H]6O)[nH]c4cc3Cl)cc2)cc1`: the EC50 was determined as 0.76 nM.

For the molecule `OCC(CO)NCc1ccc(-c2ccc(-c3cc4nc(O[C@@H]5CO[C@H]6[C@@H]5OC[C@H]6O)[nH]c4cc3Cl)cc2)cc1`, the EC50 is 1.08 nM.
